Measurements reported in patent US9833497B2, “Human originated EGF domain proteins and use of the same” (CHENGDU SOURCEBIO LIMITED-LIABILITY COMPANY, priority 2013, dated 2017).

Assays:
Type in all cases: cell-based
[1] = system: Moraxella catarrhalis; experiment: MIC against Gram-negative bacteria: Moraxella catarrhalis
Summary of the method: (§1)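 Antibacterial activity of purified human EGF domain proteins: two-fold concentration series, triplicate wells, LB broth, 5×10^5 CFU/mL bacteria, 37° C shaking incubation. The lowest concentration without growth defines the MIC.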

[2] = system: Serratia marcescens; experiment: MIC against Gram-negative bacteria: Serratia marcescens
Summary of the method: as §1

[3] = system: Citrobacter diversus; experiment: MIC against Gram-negative bacteria: Citrobacter diversus
Summary of the method: as §1

[4] = system: Proteus vulgaris; experiment: MIC against Gram-negative bacteria: Proteus vulgaris
Summary of the method: as §1

[5] = system: E. coli DH5α; experiment: Antibacterial activity: MIC and growth curve against E. coli DH5α in 96-well plate; settings: minimal inhibitory concentration against E. coli DH5α; 96-well plate, 5×10^5 CFU/mL, 37° C., judged after 8 h
Summary of the method: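 MIC taken as lowest protein level with no bacterial growth, tracked by A600 every 30 min during 37 °C, 175 rpm culture. Two-fold protein series 50-12.5 μg/mL final, triplicate wells, against 5×10^5 CFU/mL of LB-washed mid-log cells.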

[6] = system: Pseudomonas aeruginosa; experiment: MIC against Gram-negative bacteria: Pseudomonas aeruginosa
Summary of the method: as §1

[7] = system: Klebsiella pneumonia; experiment: MIC against Gram-negative bacteria: Klebsiella pneumonia
Summary of the method: as §1

[8] = system: Proteus mirabilis; experiment: MIC against Gram-negative bacteria: Proteus mirabilis
Summary of the method: as §1

[9] = system: E. coli BL21; experiment: MIC against Gram-negative bacteria: E. coli BL21
Summary of the method: as §1

[10] = system: Aeromonas hydrophila; experiment: MIC against Gram-negative bacteria: Aeromonas hydrophila
Summary of the method: as §1

[11] = system: Enterobacter cloacae; experiment: MIC against Gram-negative bacteria: Enterobacter cloacae
Summary of the method: as §1

[12] = 96-well plate, 5×10^5 CFU/mL, 37° C., 10 h
[13] = 10 h cultivation at 37° C., 5×10^5 CFU/mL, two-fold serial dilution
[14] = M. catarrhalis, 10 h cultivation at 37° C., 5×10^5 CFU/mL
[15] = S. marcescens, 10 h cultivation at 37° C., 5×10^5 CFU/mL
[16] = C. diversus, 10 h cultivation at 37° C., 5×10^5 CFU/mL
[17] = P. vulgaris, 10 h cultivation at 37° C., 5×10^5 CFU/mL
[18] = P. aeruginosa, 10 h cultivation at 37° C., 5×10^5 CFU/mL
[19] = K. pneumonia, 10 h cultivation at 37° C., 5×10^5 CFU/mL
[20] = P. mirabilis, 10 h cultivation at 37° C., 5×10^5 CFU/mL
[21] = E. coli BL21, 10 h cultivation at 37° C., 5×10^5 CFU/mL
[22] = A. hydrophila, 10 h cultivation at 37° C., 5×10^5 CFU/mL
[23] = E. cloacae, 10 h cultivation at 37° C., 5×10^5 CFU/mL

Substance: PRT630 (CQCSGNVDPNAVGNCDPLSGHCLRCLHNTTGDHCEHCQEGFYGSALAPRPADKCMP; listed as Homo sapiens)
- MIC M. catarrhalis [1, 12]: 25 µg/mL
- MIC S. marcescens [2, 12]: 12.5 µg/mL
- MIC C. diversus [3, 12]: 12.5 µg/mL
- MIC P. vulgaris [4, 12]: 25 µg/mL
- MIC [5]: 50 µg/mL
- MIC P. aeruginosa [6, 12]: 12.5 µg/mL
- MIC K. pneumonia [7, 12]: 25 µg/mL
- MIC P. mirabilis [8, 12]: 12.5 µg/mL
- MIC E. coli BL21 [9, 12]: 25 µg/mL
- MIC A. hydrophila [10, 12]: 25 µg/mL
- MIC E. cloacae [11, 12]: 12.5 µg/mL

Substance: PRT1137 (ESNECKMNPCKNNSTCTDLYKSYRCECTSGWTGQNCS; listed as Homo sapiens)
- MIC M. catarrhalis [1, 13]: 50 µg/mL
- MIC S. marcescens [2, 13]: 12.5 µg/mL
- MIC C. diversus [3, 13]: 12.5 µg/mL
- MIC P. vulgaris [4, 13]: 50 µg/mL
- MIC [5]: 25 µg/mL
- MIC P. aeruginosa [6, 13]: 25 µg/mL
- MIC K. pneumonia [7, 13]: 12.5 µg/mL
- MIC P. mirabilis [8, 13]: 12.5 µg/mL
- MIC E. coli BL21 [9, 13]: 50 µg/mL
- MIC A. hydrophila [10, 13]: 50 µg/mL
- MIC E. cloacae [11, 13]: 25 µg/mL

Substance: PRT1445 (PCLNDCGPYGQCLLLRRHSYLYASCSCKAGWRGWSCT; listed as Homo sapiens)
- MIC against M. catarrhalis ([1]; Moraxella catarrhalis, 5×10^5 CFU/mL, 10 h cultivation at 37° C.): 25 µg/mL
- MIC against S. marcescens ([2]; Serratia marcescens, 5×10^5 CFU/mL, 10 h cultivation at 37° C.): 50 µg/mL
- MIC against C. diversus ([3]; Citrobacter diversus, 5×10^5 CFU/mL, 10 h cultivation at 37° C.): 25 µg/mL
- MIC against P. vulgaris ([4]; Proteus vulgaris, 5×10^5 CFU/mL, 10 h cultivation at 37° C.): 25 µg/mL
- MIC [5]: 50 µg/mL
- MIC against P. aeruginosa ([6]; Pseudomonas aeruginosa, 5×10^5 CFU/mL, 10 h cultivation at 37° C.): 50 µg/mL
- MIC against K. pneumonia ([7]; Klebsiella pneumonia, 5×10^5 CFU/mL, 10 h cultivation at 37° C.): 50 µg/mL
- MIC against P. mirabilis ([8]; Proteus mirabilis, 5×10^5 CFU/mL, 10 h cultivation at 37° C.): 50 µg/mL
- MIC against E. coli BL21 ([9]; E. coli BL21, 5×10^5 CFU/mL, 10 h cultivation at 37° C.): 12.5 µg/mL
- MIC against A. hydrophila ([10]; Aeromonas hydrophila, 5×10^5 CFU/mL, 10 h cultivation at 37° C.): 50 µg/mL
- MIC against E. cloacae ([11]; Enterobacter cloacae, 5×10^5 CFU/mL, 10 h cultivation at 37° C.): 50 µg/mL

Substance: PRT834 (DCADSPCCQQVCTNNPGGYECGCYAGYRLSADGCGCE; listed as Homo sapiens)
- MIC (μg/mL) M. catarrhalis [1, 14]: 25 µg/mL
- MIC (μg/mL) S. marcescens [2, 15]: 25 µg/mL
- MIC (μg/mL) C. diversus [3, 16]: 12.5 µg/mL
- MIC (μg/mL) P. vulgaris [4, 17]: 12.5 µg/mL
- MIC [5]: 50 µg/mL
- MIC (μg/mL) P. aeruginosa [6, 18]: 12.5 µg/mL
- MIC (μg/mL) K. pneumonia [7, 19]: 25 µg/mL
- MIC (μg/mL) P. mirabilis [8, 20]: 50 µg/mL
- MIC (μg/mL) E. coli BL21 [9, 21]: 25 µg/mL
- MIC (μg/mL) A. hydrophila [10, 22]: 25 µg/mL
- MIC (μg/mL) E. cloacae [11, 23]: 50 µg/mL

Substance: PRT765 (VRDKCALGSHGCQHICVSDGAASYHCDCYPGYTLNEDKKTCS; listed as Homo sapiens)
- MIC (μg/mL) M. catarrhalis [1, 14]: 12.5 µg/mL
- MIC (μg/mL) S. marcescens [2, 15]: 12.5 µg/mL
- MIC (μg/mL) C. diversus [3, 16]: 12.5 µg/mL
- MIC (μg/mL) P. vulgaris [4, 17]: 12.5 µg/mL
- MIC [5]: 12.5 µg/mL
- MIC (μg/mL) P. aeruginosa [6, 18]: 12.5 µg/mL
- MIC (μg/mL) K. pneumonia [7, 19]: 50 µg/mL
- MIC (μg/mL) P. mirabilis [8, 20]: 12.5 µg/mL
- MIC (μg/mL) E. coli BL21 [9, 21]: 50 µg/mL
- MIC (μg/mL) A. hydrophila [10, 22]: 12.5 µg/mL
- MIC (μg/mL) E. cloacae [11, 23]: 12.5 µg/mL

Substance: PRT901 (DINECVLSPCRHGASCQNTHGGYRCHCQAGYSGRNCE; listed as Homo sapiens)
- MIC ([1]; M. catarrhalis, 10 h cultivation at 37° C.): 50 µg/mL
- MIC ([2]; S. marcescens, 10 h cultivation at 37° C.): 25 µg/mL
- MIC ([3]; C. diversus, 10 h cultivation at 37° C.): 25 µg/mL
- MIC ([4]; P. vulgaris, 10 h cultivation at 37° C.): 12.5 µg/mL
- MIC [5]: 25 µg/mL
- MIC ([6]; P. aeruginosa, 10 h cultivation at 37° C.): 12.5 µg/mL
- MIC ([7]; K. pneumonia, 10 h cultivation at 37° C.): 50 µg/mL
- MIC ([8]; P. mirabilis, 10 h cultivation at 37° C.): 25 µg/mL
- MIC ([9]; E. coli BL21, 10 h cultivation at 37° C.): 25 µg/mL
- MIC ([10]; A. hydrophila, 10 h cultivation at 37° C.): 12.5 µg/mL
- MIC ([11]; E. cloacae, 10 h cultivation at 37° C.): 25 µg/mL

Substance: PRT791 (SQECQCHNGGTCDAATGQCHCSPGYTGERCQ; listed as Homo sapiens)
- MIC (μg/mL) M. catarrhalis [1, 14]: 50 µg/mL
- MIC (μg/mL) S. marcescens [2, 15]: 12.5 µg/mL
- MIC (μg/mL) C. diversus [3, 16]: 25 µg/mL
- MIC (μg/mL) P. vulgaris [4, 17]: 12.5 µg/mL
- MIC [5]: 50 µg/mL
- MIC (μg/mL) P. aeruginosa [6, 18]: 50 µg/mL
- MIC (μg/mL) K. pneumonia [7, 19]: 12.5 µg/mL
- MIC (μg/mL) P. mirabilis [8, 20]: 25 µg/mL
- MIC (μg/mL) E. coli BL21 [9, 21]: 12.5 µg/mL
- MIC (μg/mL) A. hydrophila [10, 22]: 12.5 µg/mL
- MIC (μg/mL) E. cloacae [11, 23]: 50 µg/mL
